Results from patent US20070082073A1, “Catechin Adjuvants” (UNIVERSITY OF SOUTH FLORIDA, priority 2005, published 2007).
Values belong to the compound of their own block, whether it stands above or below them.

Assays:
[1] = estimated/extrapolated EGCg plasma concentration after oral daily dose; type: in vivo, dogs
Description: Previous reports indicate in vivo therapeutic activity at a plasma concentration of 1 to 10 μM/L (Lambert & Yang, 2003). Swezey et. al (Swezey et al., 2003) studied the absorption, tissue distribution and elimination of 4-[^3H]-epigallocatechin gallate in beagle dogs and estimated that approximately 20% of the oral dose appears in plasma after one hour and a half life of approximately 8 h. Considering an underestimation of this value to be 50 μg/ml and the molecular weight of EGCg of […] a daily dose of 250 mg/kg/day would result in a plasma concentration of approximately 100 μM/L. The doses proposed herein would result in an extrapolated value of more than […] in plasma.

[2] = tested on: doxorubicin resistance tumors; details: animal model; cited from earlier work
[3] = tested on: opportunistic microbial infections; test: opportunistic microbial infections in canines treated with antimetabolites for lymphoma; type: in vivo
Excerpt: There is a wide commercial need for inexpensive small molecular weight immunoenhancing drugs to enhance the immune response of individuals treated with antimetabolite anti-cancer drugs, which are immunosuppressive. We are using as the preclinical prototype pet canines treated for lymphoma, one of the most common cancers of dogs as well as humans.

[4] = beagle dogs, cited from earlier work

plasma concentration ([1]; daily dose of 250 mg/kg/day): approximately 100 μM/L
plasma value, considered an underestimation ([1]; daily dose of 250 mg/kg/day): 50 µg/mL
extrapolated value in plasma ([1]; the doses proposed herein (6-60 mg/kg/day EGCg, oral)): more than 11 M/L
SMILES: O=C(O[C@@H]1Cc2c(O)cc(O)cc2O[C@@H]1c1cc(O)c(O)c(O)c1)c1cc(O)c(O)c(O)c1 [EGCg, epigallocatechin gallate]
effect on doxorubicin resistance tumors [2]: revert doxorubicin resistance tumors

SMILES: COc1cccc2c1C(=O)c1c(O)c3c(c(O)c1C2=O)C[C@@](O)(C(=O)CO)C[C@@H]3O[C@H]1C[C@H](N)[C@H](O)[C@H](C)O1 [adriamycin]
incidence of opportunistic microbial infections [3]: increased incidence of opportunistic microbial infections

SMILES: [3H]C1c2c(O)cc(O)cc2OC(c2cc(O)c(O)c(O)c2)C1OC(=O)c1cc(O)c(O)c(O)c1 (stereo not shown) [4-[^3H]-epigallocatechin gallate]
oral dose that appears in plasma ([4]; after one hour): approximately 20%
half life ([4]; oral dose): approximately 8 h
